The nature of the series: Encapsulation of coumarin-6 in PEC nanoparticles by solvent displacement. It is filed as physicochemical. Conditions: solvent displacement method. Here is the method: Coumarin-6 is used (absorption: 485 nm, emission: 505-525 nm) as it allows to optically detect a potential phagocytosis process and furthermore, is a suitable model for a lipophilic agent. Due to its lipophilic characteristics and low water solubility, coumarin-6 can suitably be processed by the solvent displacement method, in order to achieve a high packaging rate. The encapsulation efficiency is very high and lies close to 100%. The preparation of the loaded nanoparticles is also performed using the modified solvent-displacement method as described in example 2. Coumarin-6 is used in a stock solution of 50 μg/ml in acetonitrile (the stock solution is stored in the refrigerator and protected by light e.g. by using aluminium foil) and the PEC 95 and 99 polymers as a 10 mg/ml stock solution in acetonitrile. All samples are set up in triplicate. For loading the nanoparticles the required amounts of PEC stock solution and coumarin-6 stock solution are mixed, filled up with acetonitrile up to 1.5 ml and vortexed (see table 2). This solution is then injected into the PVA solution according to the usual schema (see above).

`CCN(CC)c1ccc2cc(-c3nc4ccccc4s3)c(=O)oc2c1` [coumarin-6] showed an Encapsulation efficiency of about 100%.

Values taken from patent publication US20110250243A1, “NANOPARTICLE COMPOSITIONS” (priority 2008, published 2011).
